According to patent US20250319139A1, “METHODS FOR TREATING NEUROINFLAMMATION” (University of Virginia Patent Foundation, priority 2021, published 2025):

Assays:
Assay type in all cases: in vivo, mouse
IL-1β = assay: ELISA of IL-1β in the serum; conditions: young mice, 100 mg/kg intraperitoneal 1 h before and 6 h after 120-min MCAO; 24 h after MCAO; vs saline
Method: Mice were weighed and anesthetized with isoflurane at 24 h after MCAO. Blood samples were obtained from the right heart after thoracotomy. Blood was centrifuged (13,000 g, 4° C.) after it had been placed at 4° C. for 2 h for the collection of serum. After the collection of blood, mice were perfused with 4° C. saline for brain tissue harvesting. The cerebral cortex (anteroposterior: -1.5 to 2.5 mm, mediolateral: 1.0 to 3.0 mm) was dissected out. All dissection procedures were performed on ice. IL-10, IL-17, IL-1β and IL-6 in the serum and brain were detected by using ELISA kits (catalog number: M1000B, M1700, MLB00C and D6050, R&D SYSTEM, Inc., Minneapolis, MN, USA) as we described before. The brain tissues were homogenized on ice in the RIPA buffer containing 25 mM Tris-HCl with pH 7.6, 150 mM NaCl, 1% sodium deoxycholate and 0.1% SDS (catalog number: 89901, Thermo Scientific, Rockford, IL, USA) and a protease inhibitor cocktail containing 10 mg/ml aproteinin, 5 mg/ml […], 5 mg/ml leupetin and 1 mM phenylmethane sulfonylfluoride (catalog number: SRE0055, Sigma-Aldrich, St. Louis, MO, USA). The supernatant was collected for ELISA detection after being centrifuged for 20 min (13,000 g, 4° C.) and the protein concentration was determined by the BCA method. Cytokines in the serum and supernatant of brain were detected according to the manufacturer's instruction. […]

[1] = tested on: dendritic branches and spines of hippocampal neurons; assay: Golgi staining, dendritic arborization; conditions: young adult mice with exercise and surgery; intraperitoneal valeric acid
Method: Golgi staining was performed using FD Rapid GolgiStain™ Kit. Nineteen days after surgery, brains of 6 mice in each group were immersed in the impregnation solution (solutions A and B: 1:1) for 2 weeks and then transferred to solution C for 3 days. Coronal brain sections at a thickness of 100 μm and around-2.7 mm from bregma were cut on a vibratome (Microslicer® 10110, Ted Pella, Inc. California, USA). As described before, more than 10 well individualized neurons in the dentate gyrus (DG) region of the hippocampus were randomly selected from each mouse, and sequential optical multiple-layers scanning images were taken at an interval 2.0 μm along the z-axis (3DHISTECH, Pannoramic MIDI, Hungary) with 20× objective. The multiple-layer scanning files were superposed to become one clear scanning file that can be viewed with Caseviewer (3DHISTECH, Hungary) on a computer. The total branch number and dendritic length were measured by Fiji software (Fiji-win64, NIH, USA). The complexity of total dendritic trees (intersections) was estimated using Sholl analysis. For spine density measurement, 5 neurons were selected from each animal. […] The spine numbers in 40 μm segments were counted by an observer who was blind to group assignment. The results were expressed as the number of spines/10 μm segments. […]

IL-6 = IL-6 in the hippocampus by ELISA; conditions: young adult mice with exercise and surgery; intraperitoneal valeric acid
Method: IL-1β, IL-6, C3 and GDNF in the hippocampus were detected by using ELISA kits. For testing the IL-1β, IL-6 and GDNF, brain tissues were homogenized on ice in the RIPA buffer containing 25 mM Tris-HCl with pH 7.6, 150 mM NaCl, 1% sodium deoxycholate, 0.1% SDS and a protease inhibitor cocktail containing 10 mg/ml aproteinin, 5 mg/ml peptastin, 5 mg/ml leupetin and 1 mM phenylmethane sulfonylfluoride. For C3 testing, brain tissues were homogenized on ice in the PTR buffer (supplied in the kit). The supernatant was collected for ELISA detection after the homogenate was centrifuged at 13,000 g for 20 min at 4° C. and the protein concentration was determined by the BCA protein assay (Bio-Rad, Hemel Hempstead, Herts, UK). IL-1β, IL-6, C3 and GDNF in supernatant of brain were detected according to the manufacturer's instruction for ELISA, and the amount of them in each sample in the brain was normalized by its total protein content and was expressed as pg/mg protein.

CCCCC(=O)O [valeric acid]
IL-1β in the blood (IL-1β): increased | exercise attenuation of the decrease of intersections among dendritic branches [1]: this attenuation was blocked | exercise attenuation of the decrease of spine density in the hippocampus [1]: this attenuation was blocked | exercise-induced reduction of IL-6 in the hippocampus (IL-6): this reduction was blocked
